What all share (format): biochemical
The target of test [1] is JAK1 (Homo sapiens, UniProt P23458). Kind of test: JAK kinase activity, homogeneous time-resolved fluorescence (JAK1 reaction system). Particulars: ATP 2 μM, JAK1 protein 0.2 ng/μL; read-out: JAK 1 activity. On the procedure: (§1) The activity measurement method of JAK kinase was to use homogeneous time-resolved fluorescence technique. The reaction was performed in 384 shallow well plates with a total reaction volume of 10 μL. The mixture of kinase protein, compound, ATP and substrate was carried out in a reaction buffer of 50 mM Hepes (pH7.0), NaN3 0.02%, BSA 0.01%, 0.1 mM orthocanadate, 5 mM MgCl2, and 1 mM DTT. After reacting for 1 hour, antibody capable of recognizing substrate phosphorylation and dye XL-615 and detection buffer (Cisbio) containing EDTA were added to the system. The reaction signal of kinase was detected by PE company's porous plate detector. The parameter settings were excitation light at 320 nm, emission light at 615 nm and 665 nm. The activity of JAK is indirectly reflected by the signal ratio of 665 nm and 615 nm. In the reaction, the background well without enzyme and the total enzyme activity well without compound were set.
(§2) The IC50 value of the compound inhibiting protein was obtained by the formula: Y=100/(1+10^((Log IC50−X)*HillSlope)).
In JAK1 reaction system, the concentration of ATP was 2 μM, and the concentration of JAK1 protein was 0.2 ng/μL.

Test [2] deals with JAK2 (Homo sapiens, UniProt O60674). Kind of test: JAK kinase activity, homogeneous time-resolved fluorescence (JAK2 reaction system). Particulars: ATP 2 μM, JAK2 protein 0.01 ng/μL. On the procedure:
as §1, §2
In JAK2 reaction system, the concentration of ATP was 2 μM, and the concentration of JAK2 protein was 0.01 ng/μL.

Test [3] has as its target T1, JAK3 (Homo sapiens, UniProt P52333).
T1 sequence (P52333 1-1124): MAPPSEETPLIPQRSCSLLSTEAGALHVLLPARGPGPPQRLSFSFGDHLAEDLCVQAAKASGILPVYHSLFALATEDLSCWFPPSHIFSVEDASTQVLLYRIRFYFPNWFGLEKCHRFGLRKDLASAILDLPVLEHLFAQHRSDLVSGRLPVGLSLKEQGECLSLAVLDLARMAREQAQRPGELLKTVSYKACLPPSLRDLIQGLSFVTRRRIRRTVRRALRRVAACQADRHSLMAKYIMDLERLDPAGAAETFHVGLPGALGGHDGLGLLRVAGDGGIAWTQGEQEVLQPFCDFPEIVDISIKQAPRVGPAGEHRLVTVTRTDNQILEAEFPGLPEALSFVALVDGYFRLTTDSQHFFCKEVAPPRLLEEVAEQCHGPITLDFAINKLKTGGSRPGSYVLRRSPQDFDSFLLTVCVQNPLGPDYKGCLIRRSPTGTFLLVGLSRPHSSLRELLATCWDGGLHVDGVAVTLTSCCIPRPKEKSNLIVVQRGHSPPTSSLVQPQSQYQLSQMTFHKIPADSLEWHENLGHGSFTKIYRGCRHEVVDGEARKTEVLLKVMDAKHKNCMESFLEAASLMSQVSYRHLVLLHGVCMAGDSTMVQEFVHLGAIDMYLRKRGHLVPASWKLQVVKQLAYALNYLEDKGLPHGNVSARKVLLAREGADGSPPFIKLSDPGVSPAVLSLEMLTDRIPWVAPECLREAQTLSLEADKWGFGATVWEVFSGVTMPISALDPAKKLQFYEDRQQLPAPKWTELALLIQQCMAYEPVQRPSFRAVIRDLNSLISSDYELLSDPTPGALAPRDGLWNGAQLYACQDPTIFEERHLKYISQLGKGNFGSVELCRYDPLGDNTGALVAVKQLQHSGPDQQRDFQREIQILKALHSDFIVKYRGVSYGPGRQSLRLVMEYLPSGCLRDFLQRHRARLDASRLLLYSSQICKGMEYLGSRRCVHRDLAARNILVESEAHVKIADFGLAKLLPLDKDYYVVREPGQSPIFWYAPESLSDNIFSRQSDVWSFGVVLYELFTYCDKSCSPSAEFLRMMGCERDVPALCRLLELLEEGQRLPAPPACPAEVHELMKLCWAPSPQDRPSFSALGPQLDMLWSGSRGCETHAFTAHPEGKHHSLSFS
Kind of test: JAK kinase activity, homogeneous time-resolved fluorescence (JAK3 reaction system). Particulars: ATP 2 μM, JAK3 protein 0.04 ng/μL; read-out: JAK 3 activity. The protocol:
as §1, §2
In JAK3 reaction system, the concentration of ATP was 2 μM, and the concentration of JAK3 protein was 0.04 ng/μL.

Test [4] concerns the target TYK2 (Homo sapiens, UniProt P29597). Nature of the test: JAK kinase activity, homogeneous time-resolved fluorescence (TYK2 reaction system). Particulars: ATP 2 μM, TYK2 protein 0.2 ng/μL; read-out: TYK 2 activity. On the procedure: as §1, §2
In TYK2 reaction system, the concentration of ATP was 2 μM and the concentration of TYK2 protein was 0.2 ng/μL.

Some results are limits rather than exact numbers.

Sequence of TYK2 (P29597 whole entry): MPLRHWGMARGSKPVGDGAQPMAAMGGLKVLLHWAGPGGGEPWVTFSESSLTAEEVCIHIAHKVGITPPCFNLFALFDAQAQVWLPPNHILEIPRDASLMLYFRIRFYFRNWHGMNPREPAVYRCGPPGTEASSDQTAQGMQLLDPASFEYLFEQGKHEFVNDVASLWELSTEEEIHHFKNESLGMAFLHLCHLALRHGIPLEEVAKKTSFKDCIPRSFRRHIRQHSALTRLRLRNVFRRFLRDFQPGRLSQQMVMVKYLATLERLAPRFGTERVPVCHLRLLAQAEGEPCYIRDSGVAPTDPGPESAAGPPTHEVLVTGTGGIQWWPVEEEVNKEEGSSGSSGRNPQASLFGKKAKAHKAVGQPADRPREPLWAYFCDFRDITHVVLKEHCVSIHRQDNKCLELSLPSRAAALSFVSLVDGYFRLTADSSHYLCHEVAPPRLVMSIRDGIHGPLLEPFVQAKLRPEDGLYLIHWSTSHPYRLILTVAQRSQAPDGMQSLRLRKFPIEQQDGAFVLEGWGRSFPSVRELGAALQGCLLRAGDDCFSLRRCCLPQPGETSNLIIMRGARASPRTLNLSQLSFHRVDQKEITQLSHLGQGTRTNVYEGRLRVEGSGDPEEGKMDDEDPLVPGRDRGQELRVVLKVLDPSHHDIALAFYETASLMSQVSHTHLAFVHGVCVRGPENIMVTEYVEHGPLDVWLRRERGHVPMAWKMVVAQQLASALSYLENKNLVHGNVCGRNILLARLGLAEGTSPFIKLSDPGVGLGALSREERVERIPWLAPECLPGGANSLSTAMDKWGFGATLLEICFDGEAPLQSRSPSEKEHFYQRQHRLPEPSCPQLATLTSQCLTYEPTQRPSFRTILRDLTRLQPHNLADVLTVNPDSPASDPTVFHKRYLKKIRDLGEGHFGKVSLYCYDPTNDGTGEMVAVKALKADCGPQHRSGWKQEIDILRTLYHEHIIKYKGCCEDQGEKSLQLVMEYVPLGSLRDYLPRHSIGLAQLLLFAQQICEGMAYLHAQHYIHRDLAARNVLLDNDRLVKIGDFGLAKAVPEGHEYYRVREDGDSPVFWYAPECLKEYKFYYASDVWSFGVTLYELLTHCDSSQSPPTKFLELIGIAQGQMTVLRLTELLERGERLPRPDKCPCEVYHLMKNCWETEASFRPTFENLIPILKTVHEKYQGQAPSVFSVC
Sequence of JAK2 (O60674 whole entry): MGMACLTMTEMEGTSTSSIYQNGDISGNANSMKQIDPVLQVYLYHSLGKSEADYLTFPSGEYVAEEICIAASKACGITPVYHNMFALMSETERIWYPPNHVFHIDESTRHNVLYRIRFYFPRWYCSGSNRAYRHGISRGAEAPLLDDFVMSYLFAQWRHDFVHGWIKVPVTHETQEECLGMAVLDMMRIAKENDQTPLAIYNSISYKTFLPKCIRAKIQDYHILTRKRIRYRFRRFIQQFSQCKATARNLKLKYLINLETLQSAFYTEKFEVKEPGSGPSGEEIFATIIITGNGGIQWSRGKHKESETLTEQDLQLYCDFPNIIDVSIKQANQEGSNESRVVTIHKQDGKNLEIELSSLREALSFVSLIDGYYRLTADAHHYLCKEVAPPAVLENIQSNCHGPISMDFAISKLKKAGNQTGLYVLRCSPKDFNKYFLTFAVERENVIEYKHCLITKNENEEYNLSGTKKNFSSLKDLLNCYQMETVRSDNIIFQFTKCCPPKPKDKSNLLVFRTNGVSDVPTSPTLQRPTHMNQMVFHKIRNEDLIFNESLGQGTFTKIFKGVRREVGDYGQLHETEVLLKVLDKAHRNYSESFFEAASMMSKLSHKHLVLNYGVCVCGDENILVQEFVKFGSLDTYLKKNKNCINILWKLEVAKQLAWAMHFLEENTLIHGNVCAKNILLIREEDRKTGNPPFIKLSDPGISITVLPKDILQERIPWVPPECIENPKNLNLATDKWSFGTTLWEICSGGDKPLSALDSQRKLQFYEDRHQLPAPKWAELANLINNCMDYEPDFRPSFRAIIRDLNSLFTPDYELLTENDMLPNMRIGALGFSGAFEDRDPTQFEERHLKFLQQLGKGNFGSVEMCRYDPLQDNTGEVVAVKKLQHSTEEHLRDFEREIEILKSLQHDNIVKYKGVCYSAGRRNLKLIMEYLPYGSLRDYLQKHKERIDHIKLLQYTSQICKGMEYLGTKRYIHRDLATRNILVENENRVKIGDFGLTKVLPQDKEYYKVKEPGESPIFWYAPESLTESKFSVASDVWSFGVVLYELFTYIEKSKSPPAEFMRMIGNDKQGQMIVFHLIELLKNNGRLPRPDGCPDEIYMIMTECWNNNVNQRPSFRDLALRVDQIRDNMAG
Sequence of JAK1 (P23458 whole entry): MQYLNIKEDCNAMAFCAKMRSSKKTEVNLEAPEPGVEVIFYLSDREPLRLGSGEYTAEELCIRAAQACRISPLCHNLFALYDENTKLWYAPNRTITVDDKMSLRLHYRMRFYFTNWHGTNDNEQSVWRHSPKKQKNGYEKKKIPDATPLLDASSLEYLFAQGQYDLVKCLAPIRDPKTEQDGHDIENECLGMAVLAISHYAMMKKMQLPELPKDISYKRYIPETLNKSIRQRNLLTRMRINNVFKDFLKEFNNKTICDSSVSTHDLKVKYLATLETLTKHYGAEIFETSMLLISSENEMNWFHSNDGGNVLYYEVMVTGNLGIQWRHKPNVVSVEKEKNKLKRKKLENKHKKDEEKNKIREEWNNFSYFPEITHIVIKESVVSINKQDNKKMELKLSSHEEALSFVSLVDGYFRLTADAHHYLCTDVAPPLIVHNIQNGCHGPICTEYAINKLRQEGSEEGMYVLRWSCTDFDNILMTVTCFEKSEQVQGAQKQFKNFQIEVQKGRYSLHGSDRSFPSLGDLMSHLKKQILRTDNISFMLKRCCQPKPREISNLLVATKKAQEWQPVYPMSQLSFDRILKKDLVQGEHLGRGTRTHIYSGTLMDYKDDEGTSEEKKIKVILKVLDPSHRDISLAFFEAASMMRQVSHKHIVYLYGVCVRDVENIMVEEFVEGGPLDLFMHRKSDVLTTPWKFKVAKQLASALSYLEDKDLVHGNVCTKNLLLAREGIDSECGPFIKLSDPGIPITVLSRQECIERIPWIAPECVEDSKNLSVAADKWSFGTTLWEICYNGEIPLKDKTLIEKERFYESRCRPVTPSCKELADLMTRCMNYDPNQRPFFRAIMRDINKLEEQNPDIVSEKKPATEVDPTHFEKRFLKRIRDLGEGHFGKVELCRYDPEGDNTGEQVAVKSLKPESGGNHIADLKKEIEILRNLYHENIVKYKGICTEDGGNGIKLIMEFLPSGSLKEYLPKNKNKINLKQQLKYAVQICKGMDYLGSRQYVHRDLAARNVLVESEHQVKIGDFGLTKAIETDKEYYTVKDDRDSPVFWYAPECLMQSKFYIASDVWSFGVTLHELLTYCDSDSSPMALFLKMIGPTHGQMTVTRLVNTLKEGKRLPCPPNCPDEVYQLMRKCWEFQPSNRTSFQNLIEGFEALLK

As to `Cc1cnc2nc1Nc1cccc(c1)CCCNC(=O)c1ccc(cc1)-c1cnc(F)c(c1)N2` [Compound 17, 2^6-fluoro-4^5-methyl-3,5,10-triaza-4(2,4)-pyrimidina-2(3,5)-pyridina-1(1,4),6(1,3)-dibenzenacycloundecaphan-11-one], the IC50 in test [1] is below 10 nM; in test [2] it was below 10 nM; in test [3], 11 to 100 nM; in test [4], 11 to 100 nM.

As for `Cc1cnc2nc1Nc1cccc(c1)CCCCNC(=O)c1ccc(cc1)-c1cnc(F)c(c1)N2` [Compound 18, 2^6-fluoro-4^5-methyl-3,5,11-triaza-4(2,4)-pyrimidina-2(3,5)-pyridina-1(1,4),6(1,3)-dibenzenacyclododecaphan-12-one], the IC50 is below 10 nM in test [1], below 10 nM in test [2], below 10 nM in test [3] and 11 to 100 nM in test [4].

With `COC(=O)c1cc2ccc1C(=O)NCCCCCNc1nc(ncc1C)Nc1cc-2cnc1F` [Compound 19, methyl 2^6-fluoro-4^5-methyl-12-oxo-3,5,11-triaza-4(2,4)-pyrimidina-2(3,5)-pyridina-1(1,4)-benzenacyclododecaphane-1^3-carboxylate], the IC50 was 101 to 1000 nM in test [1], 101 to 1000 nM in test [2], 1000 to 10000 nM in test [3] and above 10000 nM in test [4].

For the compound `Cc1cnc2nc1NCCCCCNC(=O)c1ccc(cc1S(C)(=O)=O)-c1cnc(F)c(c1)N2` [Compound 20, 2^6-fluoro-4^5-methyl-1^3-methylsulfonyl-3,5,11-triaza-4(2,4)-pyrimidina-2(3,5)-pyridina-1(1,4)-benzenacyclododecaphan-12-one], the IC50 in test [1] was 11 to 100 nM; in test [2], 1000 to 10000 nM; in test [3], 1000 to 10000 nM; in test [4], above 10000 nM.

For the compound `Cc1cnc2nc1NCCCCCNC(=O)c1ccc(cc1C(=O)O)-c1cnc(F)c(c1)N2` [Compound 21], the IC50 was in the range of 101 to 1000 nM in test [1], 11 to 100 nM in test [2], 101 to 1000 nM in test [3] and 1000 to 10000 nM in test [4].

Turning to `Cc1cnc2nc1Nc1cccc(c1)CCNC(=O)c1ccc(cc1)-c1cnc(F)c(c1)N2` [Compound 22, 2^6-fluoro-4^5-methyl-3,5,9-triaza-4(2,4)-pyrimidina-2(3,5)-pyridina-1(1,4),6(1,3)-dibenzenacyclodecaphan-10-one], the IC50 in test [1] was below 10 nM; in test [2], below 10 nM; in test [3], below 10 nM; in test [4], 11 to 100 nM.

With `Cc1cnc2nc1Nc1cccc(c1)CCCNC(=O)c1ccc(cc1F)-c1cnc(F)c(c1)N2` [Compound 23, 1^3,2^6-difluoro-4^5-methyl-3,5,10-triaza-4(2,4)-pyrimidina-2(3,5)-pyridina-1(1,4),6(1,3)-dibenzenacycloundecaphan-11-one], the IC50 in test [1] is below 10 nM; in test [2] it was below 10 nM; in test [3], 101 to 1000 nM; in test [4] it was 101 to 1000 nM.

Regarding `Cc1cnc2nc1Nc1cccc(c1)CCNC(=O)c1ccc(cc1S(C)(=O)=O)-c1cnc(F)c(c1)N2` [Compound 24, 2^6-fluoro-4^5-methyl-1^3-(methylsulfonyl)-3,5,9-triaza-4(2,4)-pyrimidina-2(3,5)-pyridina-1(1,4),6(1,3)-dibenzenacyclodecaphan-10-one], the IC50 in test [1] is below 10 nM; in test [2], below 10 nM; in test [3], 11 to 100 nM; in test [4], 101 to 1000 nM.

`Cc1cnc2nc1Nc1cccc(c1)CCCNC(=O)c1ccc(cc1S(C)(=O)=O)-c1cnc(F)c(c1)N2` [Compound 25, 2^6-fluoro-4^5-methyl-1^3-(methylsulfonyl)-3,5,10-triaza-4(2,4)-pyrimidina-2(3,5)-pyridina-1(1,4),6(1,3)-dibenzenacycloundecaphan-11-one]: the IC50 in test [1] was below 10 nM; in test [2], below 10 nM; in test [3], 11 to 100 nM; in test [4] it was 101 to 1000 nM.

On to `Cc1cnc2nc1NCCCCCNC(=O)c1ccc(c(S(C)(=O)=O)c1)-c1cnc(F)c(c1)N2` [Compound 26, 2^6-fluoro-4^5-methyl-1^2-(methylsulfonyl)-3,5,11-triaza-4(2,4)-pyrimidina-2(3,5)-pyridina-1(1,4)-benzenacyclododecaphan-12-one], for which the IC50 is 1000 to 10000 nM in test [1], 1000 to 10000 nM in test [2], 1000 to 10000 nM in test [3] and above 10000 nM in test [4].

As to `Cc1cnc2nc1Nc1ccc(F)c(c1)CCNC(=O)c1ccc(cc1S(C)(=O)=O)-c1cnc(F)c(c1)N2` [Compound 27, 2^6,6^4-difluoro-4^5-methyl-1^3(methylsulfonyl)-3,5,9-triaza-4(2,4)-pyrimidina-2(3,5)-pyridina-1(1,4),6(1,3)-dibenzenacyclodecaphan-10-one], the IC50 in test [1] was 11 to 100 nM; in test [2] it was 101 to 1000 nM; in test [3], 101 to 1000 nM; in test [4], above 10000 nM.

For the compound `Cc1cnc2nc1Nc1cccc(c1)CCNC(=O)c1ccc(cc1F)-c1cnc(F)c(c1)N2` [Compound 28, 1^3,2^6-difluoro-4^5-methyl-3,5,9-triaza-4(2,4)-pyrimidina-2(3,5)-pyridina-1(1,4),6(1,3)-dibenzenacyclodecaphan-10-one], the IC50 in test [1] was below 10 nM; in test [2], 11 to 100 nM; in test [3], 11 to 100 nM; in test [4], 1000 to 10000 nM.

With `Cc1cnc2nc1Nc1cc(ccc1F)CCNC(=O)c1ccc(cc1S(C)(=O)=O)-c1cnc(F)c(c1)N2` [Compound 29, 2^6,6^6-difluoro-4^5-methyl-1^3(methylsulfonyl)-3,5,9-triaza-4(2,4)-pyrimidina-2(3,5)-pyridina-1(1,4),6(1,3)-dibenzenacyclodecaphan-10-one], the IC50 is 11 to 100 nM in test [1], 101 to 1000 nM in test [2], 1000 to 10000 nM in test [3] and above 10000 nM in test [4].

Take `Cc1cnc2nc1Nc1ccccc1CCNC(=O)c1ccc(cc1F)-c1cnc(F)c(c1)N2` [Compound 30, 1^3,6^6-difluoro-4^5-methyl-1^3-3,5,9-triaza-4(2,4)-pyrimidina-1(5,2),2(3,5)-dipyridina-6(1,2)-benzenacyclodecaphan-10-one]: the IC50 in test [1] was in the range of 11 to 100 nM; in test [2] it was 11 to 100 nM; in test [3] it was 101 to 1000 nM; in test [4], 1000 to 10000 nM.

Take `Cc1cnc2nc1Nc1cccc(c1)CCCNC(=O)c1c(F)cc(cc1F)-c1cnc(F)c(c1)N2` [Compound 31, 1^3,1^5,2^6-trifluoro-4^5-methyl-3,5,10-triaza-4(2,4)-pyrimidina-2(3,5)-pyridina-1(1,4),6(1,3)-dibenzenacycloundecaphan-11-one]: the IC50 in test [1] is 101 to 1000 nM; in test [2] it was 101 to 1000 nM; in test [3] it was 1000 to 10000 nM; in test [4], above 10000 nM.

As to `Cc1cnc2nc1Nc1ccccc1CCCNC(=O)c1ccc(cc1F)-c1cnc(F)c(c1)N2` [Compound 32, 1^3,2^6-difluoro-4^5-methyl-3,5,10-triaza-4(2,4)-pyridina-1(5,2),2(3,5)-dipyridina-6(1,2)-benzenacycloundecaphan-11-one], the IC50 in test [1] lay within 11 to 100 nM; in test [2], 11 to 100 nM; in test [3], 101 to 1000 nM; in test [4], 1000 to 10000 nM.

The values are drawn from patent US20230167114A1, “MACROCYCLIC JAK INHIBITOR AND USE THEREOF” (Biopolar Hongye (Guangdong) Pharmaceutical Co., Ltd., priority 2020, published 2023).
